Laboratory results as given in PMC11409709, “Inhibition of DRP-1 mitochondrial mitophagy and fission by novel α-aminophosphonates bearing pyridine: synthesis, biological evaluations, and computer-aided design” (BMC Chemistry, 2024).
“Also recorded” adds a separate entry of the source. Like-named read-outs stand apart in the source and are kept apart here.

Assays:
ABTS radical scavenging = conditions: for IC50: 30 min dark, 734 nm
Protocol: (§1) With slight modifications, the DPPH and ABTS methods were used to test the new phosphonate’s free radical scavenging activity. Briefly, one milliliter of a 0.1 mM DPPH in methanol solution and ABTS in distilled water were added to the newly synthesized compounds. For 30 min, the mixture was left in the dark. The synthetic compounds’ ability to scavenge free radicals was compared to that of L. Ascorbic acid. At 517 nm for DPPH and 734 nm for ABTS, optical density was recorded, and the concentration inhibition was computed.
(§2) The percentage of inhibition is equal to [(A control − A test)/A control] × 100, where A control represents the control absorbance and A test represents the test sample absorbance. It was established what sample concentration (IC50) produced 50% inhibition. Every experiment was conducted in triplicate, and the mean ± SE IC50 values were reported.

Mammary gland (MCF-7) = assay: MTT assay, MCF-7; type: cell-based, human; conditions: for IC50: Homo sapiens, MCF7, 48 h, read-out: Anti-cancer activity MCF-7 (IC50), MTT, 48 h; for antitumor impact on MCF-7: MTT, 48 h, compared with DOX
Excerpt: (§3) Mammary gland (MCF-7;# ATCC HTB-22), colorectal adenocarcinoma (Caco-2; # ATCC HTB-37), hepatocellular carcinoma (HepG-2; #ATCC HB-8065), and human lung fibroblast (WI-38; # ATCC CCL-75). The ATCC cell line was obtained via the Holding Company for Biological Products and Vaccines (VACSERA), Cairo, Egypt.
(§4) The MTT test was utilized to ascertain the phosphonate's inhibitory effects on cell growth utilizing the aforementioned cell lines. The basis of this colorimetric assay is the transformation of yellow tetrazolium bromide (MTT) by mitochondrial succinate dehydrogenase in living cells into a purple formazan derivative. 10% fetal bovine serum was added to RPMI-1640 media used to cultivate cell lines. At 37 °C in an incubator with 5% CO2, 100 units/mL of penicillin and 100 µg/mLof streptomycin were introduced as antibiotics. The cell lines were seeded at 1.0 × 10^4 cells/well in a 96-well plate and kept at 37 °C for 24 h with 5% CO2. Following incubation, the cells were subjected to several concentrations of newly synthesized phosphonates and left for 48 h incubation. 20 µL of a 5 mg/mL MTT solution was added and incubated for 4 h after the drug treatment lasted for 48 h. To dissolve the purple formazan produced in each well, 100 µL of dimethyl sulfoxide (DMSO) was applied. Using a plate reader (EXL 800, USA), the colorimetric test is measured and recorded at the absorbance of 570 nm. (A570 of treated samples/A570 of untreated sample) X 100 was used to compute the relative cell viability as a percentage.

[1] = system: bacterial and fungal strains; assay: Disc diffusion, whole panel (result in words); type: cell-based; conditions: 1 mg/mL
Protocol: (§5) The produced compounds’ antimicrobial activity was evaluated using a panel of two gram-positive bacteria (Bacillus subtilis (#MTCC NO 441) and Staphylococcus aureus (#MTCC NO 96). as well as two Gram-negative bacteria (Pseudomonas aeruginosa (#MTCC NO 1688), Escherichia coli(#MTCC NO 452)). Two fungi [Candida albicans(#MTCC NO 183) and Aspergillus flavus(#MTCC NO 1344)] were used to assess the compounds' anti-fungal properties. Paper discs of Whatman filter paper with a standard size of […] were made, dissolved in DMSO, and then sterilized in an autoclave. A solution of 1 mg/mL was prepared for each drug separately. Paper discs soaked in the desired concentration of the complex solution were aseptically placed in Petri dishes containing nutrient agar media (20 g + 3 g of beef extract + 5 g of peptone) seeded with bacterial and fungal strains. After 24 h of incubation at 36 °C, the inhibitory zones in the petri dishes were measured. There were three copies of every treatment. Using the same protocol as previously described, the antifungal Clotrimazole and the common standard antibiotic Ciprofloxacin were also tested for antibacterial activity at the same concentrations and solvent combinations.

[2] = system: hepatocellular carcinoma (HepG-2); assay: MTT assay, HepG-2; type: cell-based, human; conditions: for antitumor impact on HepG-2: compared with DOX
Excerpt: as §3, §4

DPPH radical scavenging = conditions: for IC50: 0.1 mM DPPH in methanol, 30 min dark, 517 nm
Protocol: as §1, §2

[3] = system: colorectal adenocarcinoma (Caco-2); assay: MTT assay, Caco-2; type: cell-based, human; conditions: for antitumor impact on Caco-2: MTT, 48 h, compared with DOX; for IC50: Homo sapiens, Caco-2, 48 h, read-out: Anti-cancer activity CaCo-2 (IC50), MTT, 48 h
Excerpt: as §3, §4

[4] = system: human lung fibroblast (WI-38); assay: MTT assay, WI-38 normal cells; type: cell-based; conditions: 48 h
Excerpt: as §3, §4

Escherichia coli = assay: Disc diffusion, E. coli; type: cell-based; conditions: inhibition zone vs standard drug, 1 mg/mL, 24 h, 36 °C
Protocol: as §5

Staphylococcus aureus = assay: Disc diffusion, S. aureus; type: cell-based; conditions: inhibition zone vs standard drug, 1 mg/mL, 24 h, 36 °C
Protocol: as §5

Aspergillus flavus = assay: Disc diffusion, A. flavus; type: cell-based; conditions: inhibition zone vs standard drug, 1 mg/mL, 24 h, 36 °C
Protocol: as §5

Candida albicans = assay: Disc diffusion, C. albicans; type: cell-based; conditions: inhibition zone vs standard drug, 1 mg/mL, 24 h, 36 °C
Protocol: as §5

Bacillus subtilis = assay: Disc diffusion, B. subtilis; type: cell-based; conditions: inhibition zone vs standard drug, 1 mg/mL, 24 h, 36 °C
Protocol: as §5

Pseudomonas aeruginosa = assay: Disc diffusion, P. aeruginosa; type: cell-based; conditions: inhibition zone vs standard drug, 1 mg/mL, 24 h, 36 °C
Protocol: as §5

[5] = Homo sapiens, HepG2, 48 h, read-out: Anti-cancer activity HepG-2 (IC50), MTT, 48 h

SMILES | ABTS scavenging (ABTS radical scavenging) | IC50 (Mammary gland (MCF-7)) [µM] | antitumor impact on MCF-7 (Mammary gland (MCF-7)) | melting point [°C] | biocidal effect against bacterial and fungal strains [1] | IC50 [2, 5] [µM] | antitumor impact on HepG-2 ([2]; MTT, 48 h) | DPPH scavenging (DPPH radical scavenging) | antitumor impact on Caco-2 [3] | cytotoxic effect on WI-38 normal cells [4] | IC50 [3] [µM] | also measured
CCOP(=O)(OCC)C(Nc1ncc(Cl)cc1Cl)c1ccc(N(C)C)cc1 (stereo not drawn) [Compound 3e, Diethyl (((3,5-dichloropyridin-2-yl)amino)(4-(dimethylamino)phenyl)methyl)phosphonate] | weak capacity | 3.4 | moderate to weak impact | 70 to 72 | weak | 3.1 | moderate to weak impact | weak capacity | moderate to weak impact | – | – | –
CCOP(=O)(OCC)C(Nc1ncc(Cl)cc1Cl)c1ccsc1 (stereo not drawn) [Compound 3f, Diethyl (((3,5-dichloropyridin-2-yl)amino)(thiophen-3-yl)methyl)phosphonate] | moderate impact | – | – | 88 to 90 | moderate | – | – | moderate impact | low effect | without any toxic effects | 1.7 | –
O=C1O[C@H]([C@@H](O)CO)C(O)=C1O [L-Ascorbic acid, reference compound] | – | – | – | – | – | – | – | – | – | – | – | IC50 (ABTS radical scavenging): 29.47 ± 0.17 µM; IC50 (DPPH radical scavenging): 16.81 ± 0.1 µM
CCOP(=O)(OCC)C(Nc1ncc(Cl)cc1Cl)c1ccccc1OC (stereo not drawn) [Compound 3c, Diethyl (((3,5-dichloropyridin-2-yl)amino)(2-methoxyphenyl)methyl)phosphonate] | weak capacity | 2.1 | moderate to weak impact | 73 to 75 | moderate | – | moderate to weak impact | weak capacity | moderate to weak impact | – | 2.3 | –
CCOP(=O)(OCC)C(Nc1ncc(Cl)cc1Cl)c1c(O)ccc2ccccc12 (stereo not drawn) [Compound 3d, Diethyl (((3,5-dichloropyridin-2-yl)amino)(2-hydroxynaphthalen-1-yl)methyl)phosphonate] | – | – | – | 145 to 147 | – | – | – | – | – | no cytotoxic effects; also recorded: without any toxic effects | – | IC50 (ABTS radical scavenging): 29.14 ± 0.18 µM; activity index E. coli (Escherichia coli): 42.3%; activity index S. aureus (Staphylococcus aureus): 62.5%; activity index A. flavus (Aspergillus flavus): 72%; IC50 (DPPH radical scavenging): 20.04 ± 0.14 µM; activity index C. albicans (Candida albicans): 81.5%; activity index B. subtilis (Bacillus subtilis): 52.2%; activity index P. aeruginosa (Pseudomonas aeruginosa): 60.9%
COc1cccc2c1C(=O)c1c(O)c3c(c(O)c1C2=O)C[C@@](O)(C(=O)CO)C[C@@H]3O[C@H]1C[C@H](N)[C@H](O)[C@H](C)O1 [DOX, reference compound] | – | – | – | – | – | – | – | – | – | highly toxic effects | – | IC50 [4]: 6.72 ± 0.5 µM; IC50 ([2]; MTT, 48 h, read-out: Anti-cancer activity HepG-2 (IC50)): 6.72 ± 0.5 µM
CCOP(=O)(OCC)C(Nc1ncc(Cl)cc1Cl)c1ccccc1O (stereo not drawn) [Compound 3g, Diethyl (((3,5-dichloropyridin-2-yl)amino)(2-hydroxyphenyl)methyl)phosphonate] | weak capacity | 2.6 | moderate to weak impact | 100 to 102 | weak | 2.4 | moderate to weak impact | weak capacity | moderate to weak impact | – | 3 | –
CCOP(=O)(OCC)C(Nc1ncc(Cl)cc1Cl)c1ccc(O)cc1 (stereo not drawn) [Compound 3b, Diethyl (((3,5-dichloropyridin-2-yl)amino)(4-hydroxyphenyl)methyl)phosphonate] | weak capacity | – | – | 56 to 58 | weak | 66.8 ± 3.5 | – | weak capacity | – | – | – | –
CCOP(=O)(OCC)C(Nc1ncc(Cl)cc1Cl)c1ccc(O)c(OC)c1 (stereo not drawn) [Compound 3a, Diethyl(((3,5-dichloropyridin-2-yl)amino)(4-hydroxy-3-methoxyphenyl)methyl)phosphonate] | moderate impact | – | – | 66 to 68 | moderate | 17.9 ± 1.3 | – | moderate impact | low effect | without any toxic effects | 3.3 | –
